Read-outs that look alike come from different tables or passages of the source.
Tests used:
[1] = cited from earlier work
CYP3A4 = CYP3A4 (Homo sapiens, UniProt P08684); settings: in vivo; cited from earlier work
[2] = AUC and Cmax target safe levels of CYP3A4 substrate drugs (Table 1); settings: human
From the text: In various embodiments, the “Target safe levels” are non-limiting examples of the upper limit of fold change or percent of baseline where in some embodiments the benefits of treating the patient for the condition or disease for which the CYP3A4 substrate drug is indicated outweigh the risks associated with the effects of a drug-drug interaction. […] For purposes of the present methods, the blood plasma levels measured during co-administration of the CYP3A4 substrate drug with […] may be used to estimate the posaconazole DDI decay curve, e.g., using equation 1.

[3] = single 90 min infusion of irinotecan 125 mg/m^2, AUC0-24
[4] = single 90 min infusion of irinotecan 125 mg/m^2
[5] = single 90 min infusion of irinotecan 340 mg/m^2, AUC0-24
[6] = single 90 min infusion of irinotecan 340 mg/m^2

CYP3A4, sequence (P08684 whole entry): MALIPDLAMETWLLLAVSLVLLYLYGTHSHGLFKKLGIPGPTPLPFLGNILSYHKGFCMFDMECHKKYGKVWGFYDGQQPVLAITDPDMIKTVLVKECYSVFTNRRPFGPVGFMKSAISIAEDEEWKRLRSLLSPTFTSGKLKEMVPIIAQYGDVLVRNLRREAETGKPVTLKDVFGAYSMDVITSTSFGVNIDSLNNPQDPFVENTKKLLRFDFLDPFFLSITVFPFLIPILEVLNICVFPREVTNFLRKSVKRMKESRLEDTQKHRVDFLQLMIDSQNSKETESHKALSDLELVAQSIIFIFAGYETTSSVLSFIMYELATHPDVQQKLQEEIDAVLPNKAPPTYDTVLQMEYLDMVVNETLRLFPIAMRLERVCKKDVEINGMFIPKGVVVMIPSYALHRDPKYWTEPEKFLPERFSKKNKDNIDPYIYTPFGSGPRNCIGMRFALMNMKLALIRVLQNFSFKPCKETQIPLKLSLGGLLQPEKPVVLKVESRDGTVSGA

COc1cc(Nc2ncc(F)c(Nc3ccc4c(n3)NC(=O)C(C)(C)O4)n2)cc(OC)c1OC [R406]
Baseline AUC (% CV) ([1]; in vivo): 7080 (±2670) ng*h/mL | Baseline Cmax (% CV) ([1]; in vivo): 550 (±270) ng/ml

CCc1c2c(nc3ccc(O)cc13)-c1cc3c(c(=O)n1C2)COC(=O)[C@]3(O)CC [SN-38]
Baseline AUC (% CV) [1, 3]: 229 ± 108 ng·h/mL | Baseline Cmax (% CV) [1, 4]: 26.3 ± 11.9 ng/mL | Baseline AUC (% CV) [1, 5]: 474 ± 245 ng·h/mL | Baseline Cmax (% CV) [1, 6]: 56.0 ± 28.2 ng/mL

CO[C@H]1C[C@@H]2CC[C@@H](C)[C@@](O)(O2)C(=O)C(=O)N2CCCC[C@H]2C(=O)O[C@H]([C@H](C)C[C@@H]2CC[C@@H](OCCO)[C@H](OC)C2)CC(=O)[C@H](C)/C=C(\C)[C@@H](O)[C@@H](OC)C(=O)[C@H](C)C[C@H](C)/C=C/C=C/C=C/1C [everolimus]
normal baseline AUC: mean AUC0-24±SD at steady state ([1]; 10 mg everolimus): about 536±7.7 ng*h/mL | normal baseline Cmax: mean Cmax (% CV), steady state ([1]; 10 mg everolimus): 59.7±16.9 (21.7%) ng/mL

CCc1c2c(nc3ccc(OC(=O)N4CCC(N5CCCCC5)CC4)cc13)-c1cc3c(c(=O)n1C2)COC(=O)[C@]3(O)CC [irinotecan]
Baseline AUC (% CV) [1, 3]: 10,200 ng*h/mL | Baseline Cmax (% CV) [1, 4]: 1,660 ± 797 ng/ml | Baseline AUC (% CV) [1, 5]: 20,604 ng*h/mL | Baseline Cmax (% CV) [1, 6]: 3,392 ± 874 ng/ml

CCOc1cc2ncc(C#N)c(Nc3ccc(OCc4ccccn4)c(Cl)c3)c2cc1NC(=O)/C=C/CN(C)C [neratinib]
Baseline AUC (% CV) ([1]; AUC0-24 single dose 180 mg): 734 ± 291 ng·h/mL | Baseline AUC (% CV) ([1]; AUC0-24 single dose 240 mg): 823 ± 291 ng·h/mL | Baseline AUC (% CV) ([1]; AUC0-24 single dose 320 mg): 1582 ± 800 ng·h/mL | Baseline Cmax (% CV) ([1]; single dose 180 mg): 65.9 ± 34.7 ng/mL | Baseline Cmax (% CV) ([1]; single dose 240 mg): 75.9 ± 12.9 ng/mL | Baseline Cmax (% CV) ([1]; single dose 320 mg): 118 ± 47.6 ng/mL | AUC co-administration levels, Fold change (CYP3A4): 5.81 fold | AUC co-administration levels, Percent of baseline (CYP3A4): 581% | Cmax co-administration levels, Fold change (CYP3A4): 4.21 fold | Cmax co-administration levels, Percent of baseline (CYP3A4): 421%

CCc1cc(/C(C)=N/OCc2ccc(C3CCCCC3)c(C(F)(F)F)c2)ccc1CN1CC(C(=O)O)C1 [siponimod]
AUC target safe level, Fold change [2]: 10.4 fold | AUC target safe level, Percent of baseline [2]: 1040% | AUC co-administration levels, Fold change (CYP3A4): 2 fold | AUC co-administration levels, Percent of baseline (CYP3A4): 200%

O=C(O[C@H]1CN2CCC1CC2)N1CCc2ccccc2[C@@H]1c1ccccc1 [solifenacin succinate]
normal baseline AUC: mean AUC0-24 (% CV) at steady state ([1]; in vivo, 5 mg): about 463 (37%) ng*h/mL | normal baseline Cmax: mean Cmax (% CV), steady state ([1]; in vivo, 5 mg): 24.01 (30%) ng/mL | normal baseline AUC: mean AUC0-24 (% CV) at steady state ([1]; in vivo, 10 mg): about 749 (22%) ng*h/mL | normal baseline Cmax: mean Cmax (% CV), steady state ([1]; in vivo, 10 mg): 40.61 (21%) ng/mL

Cc1c(C(=O)Nc2ccc(N3C[C@@H](C)O[C@@H](C)C3)nc2)cccc1-c1ccc(OC(F)(F)F)cc1 [sonidegib]
Cmax target safe level, Percent of baseline [2]: 0% | AUC co-administration levels, Fold change (CYP3A4): 2.2 fold | AUC co-administration levels, Percent of baseline (CYP3A4): 220% | Cmax co-administration levels, Fold change (CYP3A4): 1.5 fold | Cmax co-administration levels, Percent of baseline (CYP3A4): 150%

CN1CC(=O)N2[C@H](c3ccc4c(c3)OCO4)c3[nH]c4ccccc4c3C[C@@H]2C1=O [tadalafil]
normal baseline AUC: mean AUC0-∞ (% CV) ([1]; 10 mg tadalafil): about 3647 (34.0%) μg*h/L | normal baseline Cmax: mean Cmax (% CV) ([1]; 10 mg tadalafil): 190 (21.7%) μg/L | normal baseline Cmax: mean Cmax (% CV) ([1]; 20 mg tadalafil): 548 (24.0%) μg/L

COc1cc2c(cc1O)CCN[C@]21CS[C@@H]2c3c(OC(C)=O)c(C)c4c(c3[C@H](COC1=O)N1[C@@H]2[C@H]2c3c(cc(C)c(OC)c3O)C[C@@H]([C@@H]1O)N2C)OCO4 [trabectedin]
Baseline AUC (% CV) ([1]; AUCinf one dose (24 hr infusion) at 600 ug/m^2): 12 (±4.8) ng*h/mL | Baseline AUC (% CV) ([1]; AUCinf one dose (24 hr infusion) at 900 ug/m^2): 36 (±16) ng*h/mL | Baseline AUC (% CV) ([1]; AUCinf one dose (24 hr infusion) at 1200 ug/m^2): 32 (±13) ng*h/mL | Baseline AUC (% CV) ([1]; AUCinf one dose (24 hr infusion) at 1500 ug/m^2): 55 (±25) ng*h/mL | Baseline Cmax (% CV) ([1]; One dose (24 hr infusion) at 1500 ug/m^2): 1.8 (±1.1) ng/ml | AUC co-administration levels, Fold change (CYP3A4): 1.66 fold | AUC co-administration levels, Percent of baseline (CYP3A4): 166% | Cmax co-administration levels, Fold change (CYP3A4): 1.22 fold | Cmax co-administration levels, Percent of baseline (CYP3A4): 122%

CC[C@@H]1CN(C(=O)NCC(F)(F)F)C[C@@H]1c1cnc2cnc3[nH]ccc3n12 [upadacitinib]
Baseline AUC (% CV) ([1]; AUCinf single dose at 3 mg): 103 ± 27.6 ng·h/mL | Baseline AUC (% CV) ([1]; AUCinf single dose at 6 mg): 160 ± 37.6 ng·h/mL | Baseline AUC (% CV) ([1]; AUCinf single dose at 12 mg): 331 ± 49.8 ng·h/mL | Baseline AUC (% CV) ([1]; AUCinf single dose at 24 mg): 615 ± 78.1 ng·h/mL | Baseline Cmax (% CV) ([1]; single dose at 6 mg): 38.9 ± 9.96 ng/mL | Baseline Cmax (% CV) ([1]; single dose at 12 mg): 82.9 ± 12.1 ng/mL
